Data as given in ChEMBL document CHEMBL5212743, “Selectivity Literature for EUbOPEN Chemogenomics Library wave 3” (2023).
Blank lines part the entries; values can stand above or below the compound they belong to.

Experiments:
[1] = biological target: T1, Sodium/nucleoside cotransporter 2 (Homo sapiens, UniProt O43868); experiment: Selectivity interaction (Enzyme panel (Eurofins-Panlabs radioligand binding assays)) EUB0000751a SLC28A2
T1 sequence (O43868 whole entry): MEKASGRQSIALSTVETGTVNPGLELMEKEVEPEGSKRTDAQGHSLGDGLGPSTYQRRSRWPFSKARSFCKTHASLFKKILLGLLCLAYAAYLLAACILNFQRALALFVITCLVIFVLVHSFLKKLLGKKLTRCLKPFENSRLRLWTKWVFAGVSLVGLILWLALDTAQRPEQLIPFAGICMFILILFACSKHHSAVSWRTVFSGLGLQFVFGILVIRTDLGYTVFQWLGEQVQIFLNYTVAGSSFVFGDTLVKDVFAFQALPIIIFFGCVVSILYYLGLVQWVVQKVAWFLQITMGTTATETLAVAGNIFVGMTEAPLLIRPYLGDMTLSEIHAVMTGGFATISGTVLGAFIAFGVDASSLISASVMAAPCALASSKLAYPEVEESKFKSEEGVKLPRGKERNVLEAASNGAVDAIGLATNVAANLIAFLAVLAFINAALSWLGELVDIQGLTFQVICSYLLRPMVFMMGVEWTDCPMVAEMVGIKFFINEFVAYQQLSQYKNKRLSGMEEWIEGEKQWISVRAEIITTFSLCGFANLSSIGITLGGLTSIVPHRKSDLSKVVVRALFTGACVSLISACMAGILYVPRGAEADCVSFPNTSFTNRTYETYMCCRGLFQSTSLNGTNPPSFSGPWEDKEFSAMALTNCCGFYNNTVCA

[2] = biological target: T1, Sodium/nucleoside cotransporter 2; experiment: Selectivity interaction (Enzyme panel (Eurofins-Panlabs enzyme assay)) EUB0000751a SLC28A2
[3] = biological target: cGMP-inhibited 3',5'-cyclic phosphodiesterase 3A (Homo sapiens, UniProt Q14432); experiment: Selectivity interaction (PDE panel (enzymatic activity assay)) EUB0000751a PDE3A
[4] = biological target: High affinity 3',5'-cyclic-AMP phosphodiesterase 7A (Homo sapiens, UniProt Q13946); experiment: Selectivity interaction (PDE panel (enzymatic activity assay)) EUB0000751a PDE7A
[5] = biological target: RAC-gamma serine/threonine-protein kinase (Homo sapiens) (UniProt Q9Y243); experiment: Selectivity interaction (KinomeScan (DiscoverX)) EUB0000751a AKT3; settings: at 100 nM
[6] = biological target: Glutamate receptor ionotropic, NMDA 1 (Homo sapiens, UniProt Q05586); experiment: Selectivity interaction (PRESTO-Tango GPCR-ome screening) EUB0000539a GRIN1
[7] = biological target: Ribosomal protein S6 kinase alpha-3 (Homo sapiens) (UniProt P51812); experiment: Selectivity interaction (KinomeScan (DiscoverX)) EUB0000303b RPS6KA3; settings: at 1 µM
[8] = biological target: T2, Serine/threonine-protein kinase Sgk1 (Homo sapiens) (UniProt O00141); experiment: Selectivity interaction (KinomeScan (DiscoverX)) EUB0000303b SGK1; settings: at 1 µM
T2 sequence (whole entry): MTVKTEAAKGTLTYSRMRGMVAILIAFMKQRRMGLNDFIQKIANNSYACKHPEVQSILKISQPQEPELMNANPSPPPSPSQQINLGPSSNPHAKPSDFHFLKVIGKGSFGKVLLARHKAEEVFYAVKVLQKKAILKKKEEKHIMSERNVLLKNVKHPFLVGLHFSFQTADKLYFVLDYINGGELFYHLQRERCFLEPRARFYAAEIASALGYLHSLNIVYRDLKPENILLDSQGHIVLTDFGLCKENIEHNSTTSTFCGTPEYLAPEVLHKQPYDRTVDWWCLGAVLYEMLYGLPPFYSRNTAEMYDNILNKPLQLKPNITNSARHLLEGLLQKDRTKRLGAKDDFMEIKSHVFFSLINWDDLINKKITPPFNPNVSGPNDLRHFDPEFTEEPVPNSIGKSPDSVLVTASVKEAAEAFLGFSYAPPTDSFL

[9] = biological target: Sodium-dependent dopamine transporter (Homo sapiens, UniProt Q01959); experiment: Selectivity interaction (GPCR panel (PDSP screen)) EUB0000303b SLC6A3
[10] = biological target: Serine/threonine-protein kinase WNK2 (Homo sapiens) (UniProt Q9Y3S1); experiment: Selectivity interaction (KinomeScan (DiscoverX)) EUB0000303b WNK2; settings: at 1 µM
[11] = biological target: T3, Gamma-aminobutyric acid receptor subunit alpha-1 (Homo sapiens, UniProt P14867); experiment: Selectivity interaction (GPCR panel (PDSP screen)) EUB0000303b GABRA1
T3 sequence (P14867 whole entry): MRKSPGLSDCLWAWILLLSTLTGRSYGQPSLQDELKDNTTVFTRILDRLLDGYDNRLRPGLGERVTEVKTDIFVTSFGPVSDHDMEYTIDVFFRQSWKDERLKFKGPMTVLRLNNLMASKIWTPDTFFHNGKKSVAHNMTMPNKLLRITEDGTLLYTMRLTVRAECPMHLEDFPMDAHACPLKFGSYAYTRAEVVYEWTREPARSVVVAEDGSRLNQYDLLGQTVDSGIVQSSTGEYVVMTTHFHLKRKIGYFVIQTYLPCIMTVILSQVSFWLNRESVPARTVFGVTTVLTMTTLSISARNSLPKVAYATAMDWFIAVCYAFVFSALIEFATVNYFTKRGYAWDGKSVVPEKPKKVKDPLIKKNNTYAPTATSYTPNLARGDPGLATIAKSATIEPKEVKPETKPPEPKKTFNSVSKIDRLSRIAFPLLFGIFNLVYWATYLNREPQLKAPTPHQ

[12] = biological target: Voltage-gated inwardly rectifying potassium channel KCNH2 (Homo sapiens, UniProt Q12809); experiment: Selectivity interaction (Ricerca panel (GPCRs, ion channels, transporters, enzymes, and proteases)) EUB0000303b KCNH2; settings: at 10 µM
[13] = biological target: T4, Ephrin type-B receptor 6 (Homo sapiens) (UniProt O15197); experiment: Selectivity interaction (KinomeScan (DiscoverX)) EUB0000303b EPHB6; settings: at 1 µM
T4 sequence (whole entry): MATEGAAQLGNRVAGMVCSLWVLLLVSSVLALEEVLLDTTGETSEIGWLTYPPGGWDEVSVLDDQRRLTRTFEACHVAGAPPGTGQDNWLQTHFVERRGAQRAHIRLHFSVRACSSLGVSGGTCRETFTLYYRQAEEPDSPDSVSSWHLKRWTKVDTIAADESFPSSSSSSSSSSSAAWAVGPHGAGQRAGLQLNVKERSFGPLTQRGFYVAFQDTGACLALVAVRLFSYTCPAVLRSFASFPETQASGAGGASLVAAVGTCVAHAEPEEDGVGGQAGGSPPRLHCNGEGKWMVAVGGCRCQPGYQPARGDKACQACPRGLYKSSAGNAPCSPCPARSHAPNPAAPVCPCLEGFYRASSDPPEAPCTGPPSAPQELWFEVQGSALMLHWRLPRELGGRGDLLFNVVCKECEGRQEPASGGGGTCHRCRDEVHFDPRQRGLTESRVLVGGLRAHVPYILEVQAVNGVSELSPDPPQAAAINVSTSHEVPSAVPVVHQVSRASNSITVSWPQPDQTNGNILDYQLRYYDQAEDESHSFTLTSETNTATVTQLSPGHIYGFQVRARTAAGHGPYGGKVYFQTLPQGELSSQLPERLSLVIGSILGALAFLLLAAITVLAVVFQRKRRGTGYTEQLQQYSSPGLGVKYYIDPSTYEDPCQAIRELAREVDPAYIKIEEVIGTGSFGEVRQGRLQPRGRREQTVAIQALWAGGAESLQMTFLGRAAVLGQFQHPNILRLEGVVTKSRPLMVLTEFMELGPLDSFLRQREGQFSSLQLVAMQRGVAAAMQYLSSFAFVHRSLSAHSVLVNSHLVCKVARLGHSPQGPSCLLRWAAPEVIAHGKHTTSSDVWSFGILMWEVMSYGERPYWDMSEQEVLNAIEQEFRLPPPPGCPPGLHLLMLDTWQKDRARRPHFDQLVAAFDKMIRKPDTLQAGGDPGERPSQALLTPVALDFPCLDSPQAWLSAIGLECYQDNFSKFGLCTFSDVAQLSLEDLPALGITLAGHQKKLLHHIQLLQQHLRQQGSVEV

[14] = biological target: Beta-adrenergic receptor kinase 1 (Homo sapiens) (UniProt P25098); experiment: Selectivity interaction (KinomeScan (DiscoverX)) EUB0000303b ADRBK1; settings: at 1 µM
[15] = biological target: T5, Serine/threonine-protein kinase LATS2 (Homo sapiens) (UniProt Q9NRM7); experiment: Selectivity interaction (KinomeScan (DiscoverX)) EUB0000303b LATS2; settings: at 1 µM
T5 sequence (whole entry): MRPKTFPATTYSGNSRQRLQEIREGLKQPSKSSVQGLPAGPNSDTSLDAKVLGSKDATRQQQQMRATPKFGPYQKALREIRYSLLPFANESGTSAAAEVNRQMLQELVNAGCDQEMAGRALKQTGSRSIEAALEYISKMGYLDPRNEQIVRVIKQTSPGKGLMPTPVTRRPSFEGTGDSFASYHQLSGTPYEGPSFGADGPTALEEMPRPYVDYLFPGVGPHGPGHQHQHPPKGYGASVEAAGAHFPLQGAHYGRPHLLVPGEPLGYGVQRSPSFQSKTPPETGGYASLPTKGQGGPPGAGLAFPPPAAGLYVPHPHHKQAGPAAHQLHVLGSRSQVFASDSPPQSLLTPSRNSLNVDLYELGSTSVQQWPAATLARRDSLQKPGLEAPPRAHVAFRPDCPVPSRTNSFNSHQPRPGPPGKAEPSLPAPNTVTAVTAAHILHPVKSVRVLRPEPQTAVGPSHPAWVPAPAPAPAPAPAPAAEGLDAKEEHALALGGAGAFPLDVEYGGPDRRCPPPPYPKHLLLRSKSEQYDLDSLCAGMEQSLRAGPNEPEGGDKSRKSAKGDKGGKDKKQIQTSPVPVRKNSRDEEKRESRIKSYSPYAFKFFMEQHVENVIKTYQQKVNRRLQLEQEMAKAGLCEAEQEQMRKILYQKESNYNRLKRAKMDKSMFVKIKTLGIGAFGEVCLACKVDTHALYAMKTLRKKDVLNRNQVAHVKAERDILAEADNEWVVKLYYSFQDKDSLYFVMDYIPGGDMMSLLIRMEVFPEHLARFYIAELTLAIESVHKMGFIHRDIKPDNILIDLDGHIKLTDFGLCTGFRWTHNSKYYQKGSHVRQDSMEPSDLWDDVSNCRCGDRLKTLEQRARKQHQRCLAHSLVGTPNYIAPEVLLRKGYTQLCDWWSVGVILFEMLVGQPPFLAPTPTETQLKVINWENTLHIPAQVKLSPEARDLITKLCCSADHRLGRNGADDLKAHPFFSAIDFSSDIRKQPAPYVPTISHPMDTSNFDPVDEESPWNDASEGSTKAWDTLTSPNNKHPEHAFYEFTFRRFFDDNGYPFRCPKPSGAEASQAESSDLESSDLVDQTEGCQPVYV

[16] = biological target: T3, Gamma-aminobutyric acid receptor subunit alpha-1; experiment: Selectivity interaction (GPCR panel (PDSP screen)) EUB0000719a GABRA1
[17] = biological target: 5-hydroxytryptamine receptor 2B (Homo sapiens, UniProt P41595); experiment: Selectivity interaction (Lead profiling screen (Eurofins-Panlabs)) EUB0000720a HTR2B; settings: at 10 µM
[18] = biological target: T3, Gamma-aminobutyric acid receptor subunit alpha-1; experiment: Selectivity interaction (GPCR panel (PDSP screen)) EUB0000720a GABRA1

Sequence of Voltage-gated inwardly rectifying potassium channel KCNH2 (Q12809 whole entry): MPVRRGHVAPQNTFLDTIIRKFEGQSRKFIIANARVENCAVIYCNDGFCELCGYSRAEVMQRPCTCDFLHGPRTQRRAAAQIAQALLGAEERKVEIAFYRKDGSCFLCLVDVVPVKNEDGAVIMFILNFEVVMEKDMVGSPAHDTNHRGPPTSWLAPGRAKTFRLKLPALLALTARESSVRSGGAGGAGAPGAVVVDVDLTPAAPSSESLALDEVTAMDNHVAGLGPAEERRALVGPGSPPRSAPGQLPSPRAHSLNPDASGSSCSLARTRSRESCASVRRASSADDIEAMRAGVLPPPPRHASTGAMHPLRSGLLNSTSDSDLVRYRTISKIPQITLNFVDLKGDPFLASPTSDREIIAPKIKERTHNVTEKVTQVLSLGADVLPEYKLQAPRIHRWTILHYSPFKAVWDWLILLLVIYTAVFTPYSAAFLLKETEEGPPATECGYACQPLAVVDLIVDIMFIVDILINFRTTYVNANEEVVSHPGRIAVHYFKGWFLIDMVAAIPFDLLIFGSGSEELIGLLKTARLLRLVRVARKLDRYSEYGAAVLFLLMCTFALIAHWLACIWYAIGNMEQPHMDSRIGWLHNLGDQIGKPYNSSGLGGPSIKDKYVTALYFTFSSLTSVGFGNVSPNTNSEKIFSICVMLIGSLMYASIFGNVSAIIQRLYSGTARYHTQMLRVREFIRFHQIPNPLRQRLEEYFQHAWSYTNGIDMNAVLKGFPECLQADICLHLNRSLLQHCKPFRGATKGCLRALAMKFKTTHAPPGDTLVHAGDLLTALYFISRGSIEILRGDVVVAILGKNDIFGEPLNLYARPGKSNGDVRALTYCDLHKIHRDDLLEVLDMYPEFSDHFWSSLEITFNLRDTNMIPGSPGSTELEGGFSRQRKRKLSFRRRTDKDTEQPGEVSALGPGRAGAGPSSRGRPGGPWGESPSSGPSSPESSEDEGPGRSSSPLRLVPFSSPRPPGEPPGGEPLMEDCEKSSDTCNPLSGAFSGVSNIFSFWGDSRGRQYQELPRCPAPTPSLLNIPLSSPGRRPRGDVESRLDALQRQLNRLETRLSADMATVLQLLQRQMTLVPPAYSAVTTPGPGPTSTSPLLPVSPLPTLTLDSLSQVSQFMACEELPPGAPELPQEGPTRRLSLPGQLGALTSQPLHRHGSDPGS
Sequence of Serine/threonine-protein kinase WNK2 (Homo sapiens) (Q9Y3S1 whole entry): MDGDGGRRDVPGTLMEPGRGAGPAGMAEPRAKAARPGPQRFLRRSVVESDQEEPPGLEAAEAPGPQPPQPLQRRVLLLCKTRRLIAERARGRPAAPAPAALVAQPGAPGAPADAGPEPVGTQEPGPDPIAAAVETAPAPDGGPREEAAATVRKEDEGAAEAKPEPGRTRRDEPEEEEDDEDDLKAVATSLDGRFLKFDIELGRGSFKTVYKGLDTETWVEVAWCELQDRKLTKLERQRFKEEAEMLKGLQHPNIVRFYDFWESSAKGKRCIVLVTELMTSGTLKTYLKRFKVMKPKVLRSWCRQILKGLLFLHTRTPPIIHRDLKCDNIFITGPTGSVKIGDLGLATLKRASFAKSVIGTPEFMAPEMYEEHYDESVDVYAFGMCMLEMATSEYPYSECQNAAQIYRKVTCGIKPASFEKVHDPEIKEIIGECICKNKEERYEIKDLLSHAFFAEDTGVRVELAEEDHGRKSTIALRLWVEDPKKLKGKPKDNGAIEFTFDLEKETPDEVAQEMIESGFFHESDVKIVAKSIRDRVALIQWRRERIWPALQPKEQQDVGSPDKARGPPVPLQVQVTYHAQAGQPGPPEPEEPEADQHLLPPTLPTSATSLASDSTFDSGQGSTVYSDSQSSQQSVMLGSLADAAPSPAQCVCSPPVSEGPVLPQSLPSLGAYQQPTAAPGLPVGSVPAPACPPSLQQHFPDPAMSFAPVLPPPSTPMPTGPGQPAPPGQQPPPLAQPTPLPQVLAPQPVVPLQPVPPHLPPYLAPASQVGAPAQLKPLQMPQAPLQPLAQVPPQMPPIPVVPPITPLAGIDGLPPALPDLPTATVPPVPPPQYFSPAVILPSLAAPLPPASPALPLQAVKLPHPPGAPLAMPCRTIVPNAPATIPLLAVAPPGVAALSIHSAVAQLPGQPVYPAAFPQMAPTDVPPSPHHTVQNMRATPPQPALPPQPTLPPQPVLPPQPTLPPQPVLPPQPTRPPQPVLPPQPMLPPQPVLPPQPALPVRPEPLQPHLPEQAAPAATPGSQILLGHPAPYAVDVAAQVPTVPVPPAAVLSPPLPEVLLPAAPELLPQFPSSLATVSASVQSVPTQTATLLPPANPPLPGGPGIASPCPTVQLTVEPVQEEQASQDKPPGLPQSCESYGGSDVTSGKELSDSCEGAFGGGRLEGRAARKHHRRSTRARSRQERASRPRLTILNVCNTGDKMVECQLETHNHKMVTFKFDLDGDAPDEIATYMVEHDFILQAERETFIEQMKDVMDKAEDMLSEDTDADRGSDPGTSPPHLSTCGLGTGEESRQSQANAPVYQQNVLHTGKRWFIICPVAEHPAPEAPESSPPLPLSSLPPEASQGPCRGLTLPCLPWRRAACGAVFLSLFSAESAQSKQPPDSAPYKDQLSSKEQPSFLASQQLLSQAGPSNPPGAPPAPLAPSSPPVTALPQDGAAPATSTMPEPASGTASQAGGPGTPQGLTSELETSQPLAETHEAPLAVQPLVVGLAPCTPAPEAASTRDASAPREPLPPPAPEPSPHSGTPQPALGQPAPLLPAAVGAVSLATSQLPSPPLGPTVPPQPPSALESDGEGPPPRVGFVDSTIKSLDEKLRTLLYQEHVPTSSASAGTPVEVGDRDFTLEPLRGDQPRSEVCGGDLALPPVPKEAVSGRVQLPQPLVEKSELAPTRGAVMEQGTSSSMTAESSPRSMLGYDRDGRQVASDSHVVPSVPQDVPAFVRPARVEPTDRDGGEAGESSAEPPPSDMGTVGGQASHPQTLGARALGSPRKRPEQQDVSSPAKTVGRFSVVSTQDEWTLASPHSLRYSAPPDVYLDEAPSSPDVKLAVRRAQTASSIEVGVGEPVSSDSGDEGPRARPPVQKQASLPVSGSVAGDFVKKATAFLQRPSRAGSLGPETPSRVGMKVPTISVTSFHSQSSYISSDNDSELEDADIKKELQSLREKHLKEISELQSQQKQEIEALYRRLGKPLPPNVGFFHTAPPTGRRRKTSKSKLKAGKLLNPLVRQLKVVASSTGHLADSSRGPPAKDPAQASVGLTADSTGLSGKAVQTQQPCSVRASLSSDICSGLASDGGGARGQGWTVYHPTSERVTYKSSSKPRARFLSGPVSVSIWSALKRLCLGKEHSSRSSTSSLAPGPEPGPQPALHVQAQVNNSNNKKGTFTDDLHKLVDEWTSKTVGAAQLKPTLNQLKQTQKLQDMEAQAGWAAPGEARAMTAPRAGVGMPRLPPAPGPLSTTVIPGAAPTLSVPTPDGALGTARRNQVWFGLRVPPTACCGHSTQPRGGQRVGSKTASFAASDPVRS
Sequence of Beta-adrenergic receptor kinase 1 (Homo sapiens) (P25098 whole entry): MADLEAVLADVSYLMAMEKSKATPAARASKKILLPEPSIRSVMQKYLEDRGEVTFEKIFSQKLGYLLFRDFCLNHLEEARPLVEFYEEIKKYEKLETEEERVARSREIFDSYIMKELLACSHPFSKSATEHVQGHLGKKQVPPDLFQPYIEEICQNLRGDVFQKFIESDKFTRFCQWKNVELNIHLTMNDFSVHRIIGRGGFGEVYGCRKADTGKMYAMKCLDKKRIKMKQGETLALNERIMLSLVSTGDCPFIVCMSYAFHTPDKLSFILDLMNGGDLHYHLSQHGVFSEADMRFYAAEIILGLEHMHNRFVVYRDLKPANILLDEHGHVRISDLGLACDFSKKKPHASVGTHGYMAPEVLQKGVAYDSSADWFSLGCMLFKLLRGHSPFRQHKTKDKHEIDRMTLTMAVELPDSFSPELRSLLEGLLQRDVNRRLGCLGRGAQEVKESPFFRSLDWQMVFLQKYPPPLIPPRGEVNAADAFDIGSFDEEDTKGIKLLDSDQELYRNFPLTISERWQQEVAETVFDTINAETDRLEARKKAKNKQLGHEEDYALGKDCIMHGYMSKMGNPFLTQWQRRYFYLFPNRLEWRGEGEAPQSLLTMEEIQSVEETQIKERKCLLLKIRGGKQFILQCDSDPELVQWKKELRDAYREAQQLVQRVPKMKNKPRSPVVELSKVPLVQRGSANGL
Sequence of RAC-gamma serine/threonine-protein kinase (Homo sapiens) (Q9Y243 whole entry): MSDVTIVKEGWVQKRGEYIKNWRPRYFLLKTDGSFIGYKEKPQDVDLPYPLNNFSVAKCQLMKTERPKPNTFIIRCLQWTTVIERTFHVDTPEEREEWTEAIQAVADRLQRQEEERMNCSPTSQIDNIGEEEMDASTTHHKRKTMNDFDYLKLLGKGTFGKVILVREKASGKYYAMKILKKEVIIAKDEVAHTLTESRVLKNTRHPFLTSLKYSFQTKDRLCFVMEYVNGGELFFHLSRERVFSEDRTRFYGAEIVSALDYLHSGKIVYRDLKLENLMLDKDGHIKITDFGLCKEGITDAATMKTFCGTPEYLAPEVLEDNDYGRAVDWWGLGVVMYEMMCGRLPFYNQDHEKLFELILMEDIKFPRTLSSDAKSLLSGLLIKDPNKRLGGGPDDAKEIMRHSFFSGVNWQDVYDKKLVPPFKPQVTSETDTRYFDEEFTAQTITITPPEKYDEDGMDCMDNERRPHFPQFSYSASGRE
Sequence of 5-hydroxytryptamine receptor 2B (P41595 whole entry): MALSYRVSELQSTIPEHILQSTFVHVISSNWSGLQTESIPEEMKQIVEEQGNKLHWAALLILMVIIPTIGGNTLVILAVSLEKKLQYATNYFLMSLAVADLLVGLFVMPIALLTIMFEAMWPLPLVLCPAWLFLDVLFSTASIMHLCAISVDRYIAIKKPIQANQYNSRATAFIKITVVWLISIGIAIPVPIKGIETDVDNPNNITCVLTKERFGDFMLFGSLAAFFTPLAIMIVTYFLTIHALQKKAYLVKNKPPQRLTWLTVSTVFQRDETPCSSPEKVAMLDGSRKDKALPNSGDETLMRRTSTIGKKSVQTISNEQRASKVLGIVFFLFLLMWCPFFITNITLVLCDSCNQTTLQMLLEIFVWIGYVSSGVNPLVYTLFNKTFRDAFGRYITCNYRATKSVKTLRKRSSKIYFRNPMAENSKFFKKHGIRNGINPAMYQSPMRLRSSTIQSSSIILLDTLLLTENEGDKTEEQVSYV

Structure (SMILES): Cc1ccc2nc(CNCCCOc3ccccc3)cc(O)c2c1 [UCSF924]
Ki [6]: 1000 nM

Structure (SMILES): Cc1nc(N2CC[C@H](O)C2)ncc1-c1cc(C(F)(F)F)cc2[nH]ncc12
% of control [7]: 48%
% of control [8]: 49%
Ki [9]: 1680 nM
% of control [10]: 41%
Ki [11]: 4.54 µM
% of inhibition [12]: 1%
% of control [13]: 36%
% of control [14]: 42%
% of control [15]: 26%

Further lines, results first:

IC50 [1]: 1610 nM
IC50 [2]: 1610 nM
Ki [3]: > 3.3 mM
Ki [4]: > 11.2 µM
% of control [5]: 47%
Structure (SMILES): COCCOc1nc(-c2ccc(Cl)nc2)nc2c1CN(C(=O)c1ncn3ccccc13)CC2 [THPP-1]

Ki [16]: 375 nM
Structure (SMILES): CN1C(=O)[C@@H](N2CCc3cn(Cc4ccccc4)nc3C2=O)COc2ccccc21 [TP-030-1]

% of control [17]: 63%
Ki [18]: 347 nM
Structure (SMILES): CN1C(=O)[C@@H](N2CCc3c(nn(Cc4ccccc4)c3Br)C2=O)COc2ccccc21 [TP-030-2]
